Measured values: patent US20090130128A1, “Antiinfective Proanthocyanidin Compounds and Methods of Use Thereof” (priority 2007, published 2009)
Where two headings read alike, the source gives them in different places.

Key:
[1] = test system: H5N1 virions; type: binding, Influenza A virus (H5N1); conditions: for relative percent of total binding species: bound to H5N1 after incubation in botanical extract
[2] = test system: H1N1 virions; test: Viral Direct Binding Assay with DART TOF-MS; set-up: species or system Influenza A virus (H1N1); conditions: for relative percent of total binding species: bound to H1N1 after incubation in botanical extract
[3] = test system: Dengue-2 virus particles; test: Viral Direct Binding Assay with DART TOF-MS
[4] = test system: Rhinovirus particles; type: binding
[5] = test system: HIV-1 virions; type: binding
[6] = test system: pseudotyped HIV-1 virions; type: cell-based; conditions: GHOST cells, range over clones
[7] = bound to Den-2 after incubation in botanical extract

Molecule: COc1cc(OC)c2c(=O)c(O)c(-c3ccc(OC)c(OC)c3)oc2c1 [Averionol]
- Aver:Istro Ratio ([1]; binding ratio Averionol to Istrocyanidin on H5N1): 14.0
- relative percent of total binding species [1]: 86.9%
- Aver:Istro Ratio ([2]; binding ratio Averionol to Istrocyanidin on H1N1): 18.9
- relative percent of total binding species [2]: 69.8%
- Aver:Istro Ratio [3]: 3.7
- relative percent of total binding species [3]: 78.5%
- Aver:Istro Ratio [4]: 2.3
- relative percent of total binding species [4]: 69.5%
- Aver:Istro Ratio [5]: 5.9
- relative percent of total binding species [5]: 85.6%

Molecule: Istrocyanidin
- relative percent of total binding species [1]: 6.2%
- relative percent of total binding species [2]: 3.7%
- relative percent of total binding species [3, 7]: 21.2%
- relative percent of total binding species [4]: 30.5%
- relative percent of total binding species [5]: 14.4%

Molecule: Proanthocyanidin B2
- IC100 values for HIV-1 infection [6]: never achieved

Molecule: Tristenonol
- relative percent of total binding species [1]: 6.9%
- relative percent of total binding species [2]: 26.6%
- relative percent of total binding species [3, 7]: 0%
- relative percent of total binding species [4]: 0%
- relative percent of total binding species [5]: 0%
